Earlier results in patent publication US20170015852A1, “INK COMPOSITION” (KERACOL LIMITED, priority 2014, published 2017).

Assays:
human health = details: toxicological reports; approved food colorants E100, E120, E163
rats = details: high doses

Compound | threat to human health (human health) | carcinogenicity (rats) | solubility in ethanol [% w/v]
Cc1c(C(=O)O)c(O)cc2c1C(=O)c1c(O)c([C@@H]3O[C@H](CO)[C@@H](O)[C@H](O)[C@H]3O)c(O)c(O)c1C2=O [carminic acid] | pose no threat to human health |  | 
O=C1OC2(c3ccccc31)c1cc(I)c(O)c(I)c1Oc1c2cc(I)c(O)c1I [erythrosine] |  | cause cancer | 0.79
